The results in this text go back to patent US5695738A, “Steroidal C-glycosides” (Glycomed Incorporated, priority 1995, dated 1997).

The test system of the experiment is murine skin inflammation; swelling caused by AA. Kind of experiment: arachidonic acid (AA), murine skin inflammation (ear) model, topical administration. Particulars: for percent inhibition of swelling caused by AA alone: 10 uL of 100 mg/mL in CHCl3 (lithocholic acid in CHCl3:CH3OH 1:1) applied to the ear immediately after AA, 90 minutes; for % Inhibition of Swelling: topical, 1 mg applied to the ear immediately after arachidonic acid, 6 mm ear disk weighed at 90 minutes, average of two experiments (Table 1). The format is in vivo. The procedure: Briefly, the compounds at an appropriate concentration are dissolved in a suitable solvent, and applied to a rodent ear immediately following application of arachidonic acid (AA). A control of AA alone is run. About 90 minutes later, a 6 mm disk of each ear is removed and weighed. The percent inhibition of swelling caused by AA alone is calculated for the steroidal C-glycoside derivatives of the invention and compared to other steroids.
Using the arachidonic acid (AA), murine skin inflammation model, described by Harris, R. R. et al. (Skin Pharmacol 1990; 3:29-40) the anti-inflammatory activity of (5) was tested. For comparison, Lithocholic acid and Methyl lithocholate, were also tested. Compounds were dissolved at 100 mg/mL in CHCl3, except for lithocholic acid which was dissolved in CHCl3 :CH3 OH (1:1); 10 uL of each compound was applied to the ear immediately following arachidonic acid (AA). AA was applied alone, or followed immediately with methyl lithocholate, ketone (12) alkene (11) or compound (5). 90 minutes later, a 6 mm disk of each ear was removed and weighed.

Turning to `COC(=O)CC[C@@H](C)[C@H]1CC[C@H]2[C@@H]3CC[C@@H]4C[C@H](O)CC[C@]4(C)[C@H]3CC[C@]12C` [methyl lithocholate], the “percent inhibition of swelling caused by AA alone” value was “about 17.5%” and the “% Inhibition of Swelling” value is given as 17.5%.
For `C[C@H](CCC(=O)O)[C@H]1CC[C@H]2[C@@H]3CC[C@@H]4C[C@H](O)CC[C@]4(C)[C@H]3CC[C@]12C` [Lithocholic acid] the same measures were around 22.5% and 30.5%.
Regarding `COC(=O)CC[C@@H](C)[C@H]1CC[C@H]2[C@@H]3CC[C@@H]4C[C@H](OCC(O)(CO)C[C@@H]5O[C@@H](C)[C@@H](O)[C@@H](O)[C@@H]5O)CC[C@]4(C)[C@H]3CC[C@]12C` (stereo partly drawn) [compound (5), 1-[3-O-(Lithocholic acid)]-2-(alpha-L-C-methylfucopyranose)-2',3'-propanediol methyl ester], the “percent inhibition of swelling caused by AA alone” value is on record as “about 48.5%” and the “% Inhibition of Swelling” value is recorded as 48.5%.
